Reference: patent US7312358B2, “Pharmaceutically active sulfanilide derivatives” (Laboratoires Serono SA, priority 2000, dated 2007)

Tests used:
[1] = biological target: T1, ratOT-R (Rattus norvegicus, UniProt P70536); assay: Inhibition of IP3 (inositol tri-phosphate)-synthesis in HEK/EBNA-OTR cells; assay type: cell-based; conditions: [3H]-inositol, oxytocin 10 nM
T1 construct: expressed in transfected cells; host or cells: HEK/EBNA cells
T1 sequence (P70536 1-388): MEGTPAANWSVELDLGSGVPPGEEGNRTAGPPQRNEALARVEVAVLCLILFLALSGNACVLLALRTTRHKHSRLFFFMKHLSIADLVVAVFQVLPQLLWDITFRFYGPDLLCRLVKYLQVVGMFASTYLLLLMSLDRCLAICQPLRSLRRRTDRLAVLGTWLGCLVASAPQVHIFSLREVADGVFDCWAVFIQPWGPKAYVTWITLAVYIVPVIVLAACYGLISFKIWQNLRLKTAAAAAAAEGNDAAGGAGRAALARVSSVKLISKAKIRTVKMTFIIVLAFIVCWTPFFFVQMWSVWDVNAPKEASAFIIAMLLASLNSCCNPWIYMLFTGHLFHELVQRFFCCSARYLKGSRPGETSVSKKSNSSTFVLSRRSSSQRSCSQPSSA
Method: e) Functional Assay No. 2: Inhibition of IP3 (Inositol Tri-Phosphate)-Synthesis in HEK/EBNA-OTR Cells
This assay intends to show the inhibition of the OT/OT-R mediated IP3 synthesis—being necessary to cause uterine contractions—by using test compounds of formula (I).
Stimulation of the cells: IIEK/EBNA OTR(rat or human) cells were plated out into costar 12-well plates, and equilibrated for 15-24 h with [^3H]-inositol radiolabel in medium without inositol supplement, with 1% FCS (0.5 ml/well). 4 μCi/ml were used. After this, the medium containing the label was aspirated. Then was added DMEM (without FCS, inositol), 20 mM Hepes (4-(2-hydroxyethyl)-1-piperazine-ethane-sulphonic acid), 1 mg/ml BSA containing 10 mM LiCl (freshly prepared), for […] at 37° C. The agonist (i.e. oxytocin used at a concentration of 10 nM) and the antagonists (i.e. the tests compounds of formula (1) used in a concentration of 10 μM, 1 μM, 300 nM, 100 nM, 10 nM, 1 nM, 100 pM, 10 pM, 3 pM) were added for the time required (15-45 min), followed by aspiration of the medium. Due to the […] of the OT receptor, the radiolabeled inositol is phosphorylated to yield IP3, the amount of the radiolabeled IP3 may be determined through the ensuing work-up. The reaction was stopped with 1 ml STOP-solution (i.e. 0.4 M perchloric acid), and let sit for 5-10 min at Room Temperature. Then, 0.8 ml were transferred into tubes containing 0.4 ml of neutralizing solution (0.72 M KOH/0.6M KHCO3), and the tubes vortexed and kept in the cold at least for 2 h.
Separation of IP's: The samples were spun in a table top centrifuge at 3000-4000 rpm for 15 min. 1 ml of the supernatant was transferred to new tubes containing 2.5 ml H2O. Packed resin (0.8 ml) was equilibrated with 20 ml H2O, and the whole samples poured onto the chromatography columns, thus separating the mixture. To discard free inositol, two washes with 10 ml H2O were carried out.
Elution of total IP's: The elution was achieved using 3 ml 1M ammonium formate/0.1M formic acid. The eluant was collected in scintillation counting tubes, followed by addition of 7 ml of scintillation liquid. The amount of IP3 is determined by a scintillating counter.
The activities of the sulfanilide derivatives claimed in the formula I were assessed using the above described in vitro biological assay. The values refer to the capacity of the example compounds according to formula I to effectively antagonize oxytocin-induced IP3-synthesis mediated by the oxytocin receptor.

[2] = biological target: T2, hOT receptor (Homo sapiens, UniProt P30559); assay: In vitro competition binding assay on hOT receptor with scintillating proximity assay; conditions: membranes from HEK293EBNA cells expressing hOT receptor; radiolabel [125I]-OVTA; SPA; read-out: Binding Affinity Human OT-R Ki
T2 construct: expressed in transfected cells; host or cells: HEK293EBNA cells (membranes)
T2 sequence (P30559 1-389): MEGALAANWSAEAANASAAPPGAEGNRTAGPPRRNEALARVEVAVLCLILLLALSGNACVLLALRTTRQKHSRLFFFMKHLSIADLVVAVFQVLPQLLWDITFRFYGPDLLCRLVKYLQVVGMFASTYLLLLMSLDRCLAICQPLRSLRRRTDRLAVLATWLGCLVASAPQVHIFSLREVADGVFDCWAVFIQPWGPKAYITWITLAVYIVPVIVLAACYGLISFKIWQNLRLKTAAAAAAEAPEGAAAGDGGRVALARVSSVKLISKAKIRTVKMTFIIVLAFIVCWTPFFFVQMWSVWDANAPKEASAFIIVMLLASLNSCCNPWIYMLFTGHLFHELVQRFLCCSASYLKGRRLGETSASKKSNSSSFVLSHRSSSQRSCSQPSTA
How it was run: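 SPA competition binding using HEK293EBNA membranes expressing hOT receptor (2-4 μg) with WGA beads and 0.2 nM [125I]-OVTA in 50 mM Tris-HCl pH 7.4, 5 mM MgCl2, 0.1% BSA, 30 min at room temperature. Non-specific binding with 1 μM oxytocin; compounds at 10 pM–30 μM; IC50 by nonlinear curve fitting.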

CCOc1ccc(S(=O)(=O)N(CC(=O)N/N=C2/C(=O)Nc3ccccc32)c2ccc(C)cc2)cc1 [Example 5, 4-ethoxy-N-(4-methylphenyl)-N-{2-oxo-2-[2-(2-oxo-1,2-dihydro-3H-indol-3-ylidene)hydrazino]ethyl}benzenesulfonamide]
IC50 [1]: 13 nM | Ki [2]: 17.3 nM
